In patent US8586552B2, “4,6-substituted 2,5-dideoxystreptamine aminoglycoside antibiotics” (SelectX Pharmaceuticals, Inc., priority 2012, dated 2013):
Converted amounts (≈) assume the structure as drawn.

Tests used:
[1] = test system: Klebsiella pneumoniae KR3 (clinical isolate possessing high-level aminoglycoside resistance); test: MIC against Klebsiella pneumoniae clinical isolate KR3; format: cell-based; settings: Klebsiella pneumonia KR3; in µg/mL
Excerpt: (§1) Klebsiella pneumoniae (Kpn) and Escherichia coli (Eco) are gram-negative (like Pae), enteric pathogens with increasing clinical relevance. Many clinical isolates of Kpn and Eco harbor extended-spectrum beta-lactamases and are no longer sensitive to most beta-lactam antibiotics. We acquired clinical isolates of Klebsiella pneumoniae and Escherichia coli (Micromyx LLC, Kalamazoo, Mich.) and used this panel to test compounds for anti-enteric activity.

[2] = test system: Pseudomonas aeruginosa (Pae, PAWT, ATCC #27853); test: MIC against Pseudomonas aeruginosa reference strain PAWT; format: cell-based; settings: Pseudomonas aeruginosa wild type PAWT
[3] = test system: Acinetobacter baumannii (Aba, ABWT, ATCC #BAA-747); test: MIC against Acinetobacter baumannii reference strain ABWT; format: cell-based
[4] = test system: more than fifty resistant contemporary clinical isolates of Pseudomonas aeruginosa; test: MIC90 against panel of resistant clinical isolates of Pseudomonas aeruginosa; format: cell-based
Excerpt: To assess this, a panel of more than fifty resistant contemporary clinical isolates of Pseudomonas aeruginosa were obtained from multiple sources including JMI Laboratories (North Liberty, Iowa), Pfizer (Groton, Conn.), Micromyx (Kalamazoo, Mich.), Dr. J. Chow (Wayne State University). Strains were characterized for resistance to a wide variety of classes of antibiotics including aminoglycosides, β-lactams and fluoroquinolones. […] This reflects the difficulty in treating clinical Pseudomonas aeruginosa infections. […] Using this stringent panel, we tested a subset of compounds of the invention (Table 4).

[5] = test system: Klebsiella pneumoniae KR1 (clinical isolate with intermediate aminoglycoside resistance); test: MIC against Klebsiella pneumoniae clinical isolate KR1; format: cell-based; settings: Klebsiella pneumonia KR1; in µg/mL
Excerpt: as §1

[6] = test system: Acinetobacter baumannii AB2; test: MIC against Acinetobacter baumannii clinical isolate AB2; format: cell-based
Excerpt: (§2) Acinetobacter baumannii is another clinically important and very challenging gram negative pathogen. Members of the Acinetobacter genus, including baumannii, have a remarkable ability to upregulate and acquire resistance determinants. Coupled with its ability to survive for prolonged periods in a hospital environment, A. baumannii is an emerging threat for healthcare institutions globally. We acquired clinical isolates of Acinetobacter baumannii and used this panel to test compounds for anti-Acinetobacter activity. We first tested reference AGs against our panel of Aba strains.

[7] = test system: fifty resistant contemporary clinical isolates of Klebsiella pneumoniae; test: MIC90 against panel of resistant clinical isolates of Klebsiella pneumoniae; format: cell-based; settings: stringent panel of resistant clinical isolates, Table 5
Excerpt: Using this stringent Klebsiella pneumoniae panel, we tested a subset of compounds of the invention.

[8] = test system: fifty resistant contemporary clinical isolates of Acinetobacter baumannii; test: MIC90 against panel of resistant clinical isolates of Acinetobacter baumannii; format: cell-based
Excerpt: As in the case of Pseudomonas aeruginosa and Klebsiella pneumoniae, we considered whether the SAR observed against select Acinetobacter baumannii strains 1, 2 or 3 was indicative of general potency. […] Using this stringent Acinetobacter baumannii panel, we tested a subset of compounds of the invention.

[9] = test system: Pseudomonas aeruginosa PR3 (high-level, efflux-mediated, pan-aminoglycoside resistance); test: MIC against Pseudomonas aeruginosa clinical isolate PR3; format: cell-based; settings: Pseudomonas aeruginosa resistant strain PR3
[10] = test system: Klebsiella pneumoniae KR2 (clinical isolate with intermediate aminoglycoside resistance); test: MIC against Klebsiella pneumoniae clinical isolate KR2; format: cell-based; settings: Klebsiella pneumonia KR2
Excerpt: as §1

[11] = test system: resistant strain of P. aeruginosa (P. aeruginosa 6294 MLP-3); test: Rat neutropenic thigh model against resistant P. aeruginosa; format: in vivo
Procedure: The compound identified as SXP 2523 was further tested in vivo against a resistant strain of P. aeruginosa. Twenty male Sprague Dawley rats were rendered neutropenic by treatment with cyclophosphamide on day −4 and day −1 with 100 mg/kg and 75 mg/kg, respectively. Rats were infected with P. aeruginosa 6294 MLP-3, via injection into the right thigh muscle of 0.1 mL per rat. Two hours post infection rats were treated intravenously with either SXP-2523 or amikacin in a total dose of 10 or 60 mg/kg, respectively. The test article and control agent were delivered at 2, 4, and 6 hours post infection. Five rats were treated with each drug concentration. One group of five rats were euthanized at initiation of treatment and thigh CFUs were determined (T=Rx). Twenty-four hours post infection; rats were euthanized by CO2 inhalation. The right thigh muscles of the rats were aseptically removed, weighed, homogenized, serially diluted, and plated on BHI medium. The plates were incubated overnight at 37° C. in 5% CO2. CFU per gram of thigh was calculated by enumerating the plated colonies then adjusting for serial dilutions and the weight of the thigh.

[12] = test system: Acinetobacter baumannii AB3; test: MIC against Acinetobacter baumannii clinical isolate AB3; format: cell-based
Excerpt: as §2

[13] = test system: Pseudomonas aeruginosa PR1 (clinical isolate with intermediate aminoglycoside resistance); test: MIC against Pseudomonas aeruginosa clinical isolate PR1; format: cell-based; settings: Pseudomonas aeruginosa resistant strain PR1
[14] = test system: Pseudomonas aeruginosa PR2 (clinical isolate with intermediate aminoglycoside resistance); test: MIC against Pseudomonas aeruginosa clinical isolate PR2; format: cell-based; settings: Pseudomonas aeruginosa resistant strain PR2
[15] = test system: Acinetobacter baumannii AB1; test: MIC against Acinetobacter baumannii clinical isolate AB1; format: cell-based
Excerpt: as §2

panel of E. coli strains = test: MIC90 against a panel of E. coli strains; format: cell-based; settings: in µg/mL
[16] = resistant P. aeruginosa, Log CFU/thigh, total dose 10 mg/kg SXP-2523 or 60 mg/kg amikacin iv

Structure (SMILES): NCCCNCC1OC(OC2C(NC(=O)C(O)CCN)CC(N)C(OC3OC(CN)C(O)CC3N)C2F)C(O)C(N)C1O (stereo not shown) [SXP 2523]
- MIC KR3 [1]: 1
- MIC PAWT [2]: 0.25 µg/mL (≈ 0.399 µM)
- MIC ABWT [3]: 0.5 µg/mL (≈ 0.798 µM)
- MIC90 Pseudomonas aeruginosa [4]: 4 µg/mL (≈ 6.38 µM)
- MIC KR1 [5]: 0.5-1
- MIC AB2 [6]: 1 µg/mL (≈ 1.6 µM)
- MIC90 Klebsiella pneumonia [7]: 1 µg/mL (≈ 1.6 µM)
- MIC90 Acinetobacter baumannii [8]: 4 µg/mL (≈ 6.38 µM)
- MIC PR3 [9]: 4 µg/mL (≈ 6.38 µM)
- MIC KR2 [10]: 0.5-1
- efficacy against amikacin-resistant P. aeruginosa in animal model ([11]; rat neutropenic thigh model, total dose 10 mg/kg iv): effective against amikacin-resistant P. aeruginosa
- Change from 24 hr. control [11, 16]: −4.94
- Change from T = Rx controls [11, 16]: −1.78
- Log CFU/thigh ([11]; resistant P. aeruginosa, neutropenic male Sprague Dawley rats, iv at 2, 4, 6 h post infection, total dose 10 mg/kg SXP-2523 or 60 mg/kg amikacin, 24 h post infection): 1.71 Log CFU/thigh
- MIC AB3 [12]: 4 to 8 µg/mL
- MIC PR1 [13]: 1 to 2 µg/mL
- MIC PR2 [14]: 0.5 µg/mL (≈ 0.798 µM)
- MIC AB1 [15]: 2 to 4 µg/mL
- MIC90 E. coli (panel of E. coli strains): 2
